According to PubChem BioAssay AID330 (DTP/NCI, 2004):
Several values for one entry are separate records, joined by “and”; a condition that tells them apart may be missing. Equal values may be shown once. Toxic doses and inconclusive results are not listed.

Tested on: P388 leukemia ip, CD2F1 mice, survival T/C
Assay: NCI In Vivo Anticancer Drug Screen. Data for tumor model P388 Leukemia (intraperitoneal) in CD2F1 (CDF1) mice
Details: endpoint: median survival time, higher = longer survival
Outline: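 Mice carrying the transplanted tumor received test compound or vehicle. Survival was recorded in each group, and the value is the treated-group measurement divided by that of the vehicle-treated control group.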

[1] = dose: 7.5 mg/kg/injection, schedule: Q01DX005 (ip), vehicle: saline with Tween-80
[2] = dose: 100.0 mg/kg/injection, schedule: Q04DX002 (ip), vehicle: saline
[3] = dose: 50.0 mg/kg/injection, schedule: Q01DX005 (ip), vehicle: saline with Tween-80
[4] = dose: 100.0 mg/kg/injection, schedule: Q01DX005 (ip), vehicle: saline with Tween-80
[5] = dose: 200.0 mg/kg/injection, schedule: Q01DX005 (ip), vehicle: saline with Tween-80

CN1CCN=C1c1ccc(NC(=O)c2ccc(C(=O)Nc3ccc(C4=NCCN4C)cc3)c(N)c2)cc1
T/C (dose: 1.32 mg/kg/injection, schedule: Q01DX009 (ip), vehicle: saline): 120 % of control | T/C (dose: 3.0 mg/kg/injection, schedule: Q01DX009 (ip), vehicle: saline): 150 % of control | T/C (dose: 5.0 mg/kg/injection, schedule: Q04DX003 (ip), vehicle: saline with Tween-80): 95 % of control | T/C (dose: 10.0 mg/kg/injection, schedule: Q04DX003 (ip), vehicle: saline with Tween-80): 95 % of control | T/C (dose: 20.0 mg/kg/injection, schedule: Q04DX003 (ip), vehicle: saline with Tween-80): 90 % of control

COc1ccc(NC(CCN2CCCCC2)=NC(C)(C)C)cc1
T/C (dose: 50.0 mg/kg/injection, schedule: Q01DX009 (ip), vehicle: saline with Tween-80): 110 % of control | T/C (dose: 100.0 mg/kg/injection, schedule: Q01DX009 (ip), vehicle: saline with Tween-80): 104 % of control | T/C (dose: 200.0 mg/kg/injection, schedule: Q01DX009 (ip), vehicle: saline with Tween-80): 101 % of control

COc1ccc(/C=C/CC2Cc3cc4c(cc3OC2c2ccc(OC)cc2)OCO4)cc1 (stereo unspecified)
T/C (dose: 3.75 mg/kg/injection, schedule: Q01DX005 (ip), vehicle: saline with Tween-80): 93 % of control | T/C [1]: 90 % of control

COc1ccc2c(c1)OC(C)(C)[C@H](c1ccc(O)cc1)[C@@H]2c1ccccc1
T/C (dose: 60.0 mg/kg/injection, schedule: Q01DX005 (ip), vehicle: saline with Tween-80): 90 % of control | T/C (dose: 120.0 mg/kg/injection, schedule: Q01DX005 (ip), vehicle: saline with Tween-80): 90 % of control

COc1cc2c(c(OC)c1OC)-c1ccc(=O)c(OC)cc1[C@@H](N(C)C=O)CC2
T/C (dose: 2.5 mg/kg/injection, schedule: Q01DX009 (ip), vehicle: Klucel (hydroxypropylcellulose) (HPC)): 105 % of control | T/C (dose: 5.0 mg/kg/injection, schedule: Q01DX009 (ip), vehicle: Klucel (hydroxypropylcellulose) (HPC)): 112 % of control | T/C (dose: 10.0 mg/kg/injection, schedule: Q01DX009 (ip), vehicle: Klucel (hydroxypropylcellulose) (HPC)): 100 % of control | T/C (dose: 20.0 mg/kg/injection, schedule: Q01DX009 (ip), vehicle: Klucel (hydroxypropylcellulose) (HPC)): 114 % of control | T/C (dose: 40.0 mg/kg/injection, schedule: Q01DX009 (ip), vehicle: Klucel (hydroxypropylcellulose) (HPC)): 114 % of control

CC1(C)NNC(=S)NN1
T/C [1]: 103 % of control | T/C (dose: 15.0 mg/kg/injection, schedule: Q01DX005 (ip), vehicle: saline with Tween-80): 104 % of control

Cn1c(=O)oc2ccc(Br)cc21
T/C (dose: 100.0 mg/kg/injection, schedule: Q04DX002 (ip), vehicle: Klucel (hydroxypropylcellulose) (HPC)): 104 % of control | T/C (dose: 200.0 mg/kg/injection, schedule: Q04DX002 (ip), vehicle: Klucel (hydroxypropylcellulose) (HPC)): 104 % of control | T/C (dose: 400.0 mg/kg/injection, schedule: Q04DX002 (ip), vehicle: Klucel (hydroxypropylcellulose) (HPC)): 100 % of control

CC1(C#N)CCCC(c2ccccc2)(c2ccccc2)C1=O (stereo unspecified)
T/C (dose: 100.0 mg/kg/injection, schedule: Q04DX003 (ip), vehicle: Klucel (hydroxypropylcellulose) (HPC)): 103 % of control | T/C (dose: 200.0 mg/kg/injection, schedule: Q04DX003 (ip), vehicle: Klucel (hydroxypropylcellulose) (HPC)): 98 % of control | T/C (dose: 400.0 mg/kg/injection, schedule: Q04DX003 (ip), vehicle: Klucel (hydroxypropylcellulose) (HPC)): 100 % of control

O=C(Nc1ccc(Br)cc1)Oc1ccc(Cl)cc1C(=O)c1ccccc1
T/C (dose: 60.0 mg/kg/injection, schedule: Q01DX005 (ip), vehicle: Klucel (hydroxypropylcellulose) (HPC)): 105 % of control | T/C (dose: 120.0 mg/kg/injection, schedule: Q01DX005 (ip), vehicle: Klucel (hydroxypropylcellulose) (HPC)): 105 % of control | T/C (dose: 240.0 mg/kg/injection, schedule: Q01DX005 (ip), vehicle: Klucel (hydroxypropylcellulose) (HPC)): 108 % of control

CN(CCO)c1ccc([N+](=O)[O-])c2nonc12
T/C (dose: 25.0 mg/kg/injection, schedule: Q04DX002 (ip), vehicle: saline): 99 % of control and 103 % of control | T/C (dose: 50.0 mg/kg/injection, schedule: Q04DX002 (ip), vehicle: saline): 99 % of control (2×) and 115 % of control | T/C [2]: 100 % of control and 101 % of control

CC1c2c(cc(OC(=O)c3cccc(S(=O)(=O)F)c3)nc2OC(=O)c2cccc(S(=O)(=O)F)c2)C(=O)N1Cc1ccccc1 (stereo unspecified)
T/C (dose: 6.25 mg/kg/injection, schedule: Q01DX009 (ip), vehicle: Klucel (hydroxypropylcellulose) (HPC)): 97 % of control | T/C (dose: 12.5 mg/kg/injection, schedule: Q01DX009 (ip), vehicle: Klucel (hydroxypropylcellulose) (HPC)): 88 % of control | T/C (dose: 25.0 mg/kg/injection, schedule: Q01DX009 (ip), vehicle: Klucel (hydroxypropylcellulose) (HPC)): 87 % of control

CCOC1CC(=O)C2(C)C3CCC4(C)C(C(C)C5CC(C)=C(CO)C(=O)O5)CCC4C3CC3OC32C1O (stereo unspecified)
T/C (dose: 12.67 mg/kg/injection, schedule: Q01DX009 (ip), vehicle: saline + alcohol): 101 % of control | T/C (dose: 25.35 mg/kg/injection, schedule: Q01DX009 (ip), vehicle: saline + alcohol): 104 % of control | T/C (dose: 50.7 mg/kg/injection, schedule: Q01DX009 (ip), vehicle: saline + alcohol): 92 % of control

[Cl][Sn]1([Cl])[CH2]CCCCCCCCCC[CH2][Sn]([Cl])([Cl])[CH2]CCCCCCCCCC[CH2]1
T/C [3]: 100 % of control | T/C [4]: 86 % of control and 96 % of control | T/C [5]: 91 % of control

COC(=O)CC1(C(=O)OC)c2sc(-c3ccccc3)c(-c3ccccc3)c2N2CCCC21 (stereo unspecified)
T/C (dose: 11.25 mg/kg/injection, schedule: Q01DX009 (ip), vehicle: Klucel (hydroxypropylcellulose) (HPC)): 97 % of control | T/C (dose: 22.5 mg/kg/injection, schedule: Q01DX009 (ip), vehicle: Klucel (hydroxypropylcellulose) (HPC)): 97 % of control | T/C (dose: 45.0 mg/kg/injection, schedule: Q01DX009 (ip), vehicle: Klucel (hydroxypropylcellulose) (HPC)): 97 % of control

CCN(CC)CCOc1ccc(NC2=C(Cl)C(=O)C(Nc3ccc(OCCN(CC)CC)cc3)=C(Cl)C2=O)cc1
T/C (dose: 3.13 mg/kg/injection, schedule: Q01DX009 (ip), vehicle: saline + alcohol): 103 % of control | T/C (dose: 6.25 mg/kg/injection, schedule: Q01DX009 (ip), vehicle: saline + alcohol): 110 % of control | T/C (dose: 12.5 mg/kg/injection, schedule: Q01DX009 (ip), vehicle: saline + alcohol): 112 % of control | T/C (dose: 12.5 mg/kg/injection, schedule: Q01DX009 (ip), vehicle: saline with Tween-80): 105 % of control | T/C (dose: 25.0 mg/kg/injection, schedule: Q01DX009 (ip), vehicle: saline with Tween-80): 106 % of control

COc1ccc(C2CC(=O)C(C(=O)OC3CCCCC3)C2c2ccc(OC)cc2)cc1 (stereo unspecified)
T/C (dose: 12.5 mg/kg/injection, schedule: Q01DX001 (ip), vehicle: Klucel (hydroxypropylcellulose) (HPC)): 92 % of control | T/C (dose: 25.0 mg/kg/injection, schedule: Q01DX001 (ip), vehicle: Klucel (hydroxypropylcellulose) (HPC)): 93 % of control | T/C (dose: 50.0 mg/kg/injection, schedule: Q01DX001 (ip), vehicle: Klucel (hydroxypropylcellulose) (HPC)): 86 % of control

CCN(CC)CCCC(C)NS(=O)(=O)c1cccc2c(N(C)C)cccc12 (stereo unspecified)
T/C (dose: 6.25 mg/kg/injection, schedule: Q01DX009 (ip), vehicle: water): 96 % of control | T/C (dose: 12.5 mg/kg/injection, schedule: Q01DX009 (ip), vehicle: water): 97 % of control | T/C (dose: 25.0 mg/kg/injection, schedule: Q01DX009 (ip), vehicle: water): 93 % of control | T/C (dose: 50.0 mg/kg/injection, schedule: Q01DX009 (ip), vehicle: water): 96 % of control | T/C (dose: 100.0 mg/kg/injection, schedule: Q01DX009 (ip), vehicle: water): 99 % of control

O=c1[nH]c2c(ccc3ccc[n+]([O-])c32)c2c1CCC2
T/C [2]: 100 % of control | T/C (dose: 200.0 mg/kg/injection, schedule: Q04DX002 (ip), vehicle: saline): 90 % of control | T/C (dose: 400.0 mg/kg/injection, schedule: Q04DX002 (ip), vehicle: saline): 100 % of control

Cc1cc(C)c2c(=O)n(-c3ccc(Br)cc3)c(=S)n(-c3ccc(Br)cc3)c2n1
T/C (dose: 12.5 mg/kg/injection, schedule: Q01DX005 (ip), vehicle: saline with Tween-80): 99 % of control | T/C (dose: 25.0 mg/kg/injection, schedule: Q01DX005 (ip), vehicle: saline with Tween-80): 97 % of control | T/C [3]: 87 % of control and 95 % of control

CC(=O)Nc1nnc(-c2cc(=O)c3cc(C)ccc3o2)s1
T/C [3]: 92 % of control | T/C [4]: 91 % of control | T/C [5]: 90 % of control

CC(=O)Nc1c(C)ncn(-c2ccccc2)c1=O
T/C (dose: 60.0 mg/kg/injection, schedule: Q01DX005 (ip), vehicle: saline): 95 % of control | T/C (dose: 120.0 mg/kg/injection, schedule: Q01DX005 (ip), vehicle: saline): 100 % of control | T/C (dose: 240.0 mg/kg/injection, schedule: Q01DX005 (ip), vehicle: saline): 101 % of control

C=CC(C)(O)CS(=O)c1ccccc1 (stereo unspecified)
T/C (dose: 100.0 mg/kg/injection, schedule: Q04DX003 (ip), vehicle: saline): 100 % of control | T/C (dose: 200.0 mg/kg/injection, schedule: Q04DX003 (ip), vehicle: saline): 101 % of control | T/C (dose: 400.0 mg/kg/injection, schedule: Q04DX003 (ip), vehicle: saline): 108 % of control
